This passage reports TGI results from PubChem BioAssay (NCI).

What all share (test): NCI anticancer screen, dose series, 48 h
Assay [1] relates to MALME-3M melanoma.
In assay [2] the test system is HCT-116 colon.
The subject of assay [3] is MDA-MB-231 breast.
Assay [4] concerns SK-MEL-2 melanoma.
The subject of assay [5] is RPMI-8226 leukemia.
The test system of assay [6] is KM12 colon.
Assay [7] relates to DU-145 prostate.
The test system of assay [8] is OVCAR-3 ovarian.
Assay [9] relates to 786-0 renal.
Assay [10] relates to MDA-N.
In assay [11] the test system is HCT-15 colon.
The test system of assay [12] is BT-549 breast.
The subject of assay [13] is LOX IMVI melanoma.
Assay [14] has as its system TK-10 renal.
Assay [15] concerns CAKI-1 renal.
Assay [16] concerns EKVX NSCLC.
Assay [17] relates to A549 NSCLC.
The test system of assay [18] is M14 melanoma.
The test system of assay [19] is NCI/ADR-RES ovarian.

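Assay format: 96-well plates, 48-hour exposure. At the TGI there is no net growth.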 A value given as a limit tells only on which side of the number the result lay.

As for `CC(=O)OCc1nc(C#N)c(N)o1`, the TGI in [1], in assay [2], in assay [3], in [4], in [5] and in assay [6] was over 100 µM throughout. The TGI in assay [7], in assay [8], in assay [9], in [10], in assay [11] and in assay [12] was over 100 µM throughout. The TGI in [13], in assay [14], in [15] and in assay [16] was over 100 µM throughout.

Turning to `O=C(Sc1c(-c2ccccc2)c(=O)n(-c2ccccc2)c(=S)n1-c1ccccc1)c1ccc(Cl)cc1`, the TGI in [1], in assay [2], in assay [3], in [17], in [6] and in assay [7] was over 100 µM each time. The TGI in [18], in [8], in assay [9], in [19], in assay [10] and in assay [11] was over 100 µM each time. For the same compound, the TGI in [13], in assay [14], in assay [15] and in [16] was over 100 µM each time.

For the compound `CC(=O)N1NC(c2ccccc2)=CC(=O)/C1=C/C(=O)c1ccccc1`, the TGI in assay [1], in assay [2], in assay [3], in assay [4], in [5] and in [17] was over 100 µM throughout. Moreover, the TGI in [6], in [7], in assay [18], in [8], in assay [9] and in assay [19] was over 100 µM each time. Further, the TGI in assay [10], in assay [11], in [13], in assay [14], in assay [15] and in [16] was over 100 µM each time.

With `Cc1nnc(Nc2ccc(Cl)cc2)o1`, the TGI in [1], in [2], in assay [3], in [4], in assay [17] and in assay [6] was over 10 µM throughout. The TGI in assay [7], in assay [18], in assay [8], in assay [9], in [19] and in assay [10] was over 10 µM in each case. For the same compound, the TGI in [11], in assay [13], in assay [14], in [15] and in assay [16] was over 10 µM throughout.

Turning to `O=C1O/C(=C\c2ccc(O)c(Br)c2)C(c2ccc(O)cc2)=C1Cl`, the TGI in assay [1] is over 100 µM; in assay [2] it was over 100 µM; in assay [4], over 100 µM; in assay [5] it was 34 µM; in assay [17], over 100 µM; in assay [6] it was over 100 µM. The TGI in assay [7] is over 100 µM; in [18] it was over 100 µM; in assay [8] it was 59.7 µM; in assay [9], over 100 µM; in assay [19] it was 82.4 µM; in [10] it was 74.5 µM. Further, the TGI in [11], in assay [13], in assay [14], in [15] and in [16] was over 100 µM each time.

Consider `COC(=O)c1cc(C)ccc1/C=C1\Cc2cc(C)c(C)cc2C1=O`, for which the TGI in [1], in assay [2], in assay [3], in [4], in assay [5] and in assay [17] was over 100 µM throughout. Also, the TGI in assay [6], in assay [7], in assay [18], in [8], in [9] and in [10] was over 100 µM in each case. Moreover, the TGI in assay [11], in [12], in assay [13], in assay [14], in assay [15] and in assay [16] was over 100 µM each time.

Turning to `COC(=O)[C@H](CCSC)NC(=O)c1ccc(CNC(=O)/C=C/c2cccc(Oc3ccccc3)c2)cc1`, the TGI in [1] was 37.8 µM; in assay [2] it was over 100 µM; in assay [3] it was over 83.5 µM; in assay [4], 32.8 µM; in assay [5] it was over 100 µM; in assay [17], over 100 µM. Further, the TGI in [6] was over 100 µM; in [7], over 100 µM; in assay [18], 26.8 µM; in [8] it was over 93.6 µM; in assay [9] it was over 100 µM; in assay [19], over 100 µM. Also, the TGI is over 100 µM in assay [11]; over 100 µM in [12]; over 100 µM in [13]; over 87 µM in [14]; over 80.3 µM in assay [15]; over 100 µM in [16].

On to `Cc1ccc(S(=O)(=O)Nn2c(-c3ccccc3)c(C#N)c(-c3ccc(Cl)cc3)c(C#N)c2=O)cc1`, for which the TGI is 37.3 µM in [2]; 89.5 µM in assay [3]; 52.4 µM in [4]; 37.4 µM in assay [5]; over 100 µM in assay [17]; 41.4 µM in assay [18]. Besides, the TGI in [9] is 30.9 µM; in assay [10] it was over 100 µM; in [11], over 100 µM; in [12], 61.2 µM; in assay [13] it was 52.2 µM; in [14] it was over 100 µM. Also, in assay [15], the TGI was over 100 µM.
